This note sets out measurements from US12103946B2, “Steroid compounds as Treg modulators and uses thereof” (New York University, priority 2018, dated 2024).

Data set [1] deals with ileal lamina propria Th17 and Treg cells. In words: SFB-dependent Th17 cells in mice fed bile acid diet. In kind it is in vivo, mouse. The note with it: 0.3% diet. How it is done:
(§1) Data are shown as the mean±standard deviation by unpaired t-test with 2-tailed p-value.
(§2) Cells were then analyzed by flow cytometry.

In data set [2] the test system is colon lamina propria Th17 cells. Kind of data set: Citrobacter rodentium infection of germ-free mice. In kind it is in vivo, mouse. The note with it: germ-free B6 mice, C. rodentium, 0.3% diet. The text has this: For the box plots (a, b), the three horizontal lines of the box represent the third quartile, median and first quartile, respectively from top to bottom. […] Mice were fed an autoclaved diet with or without 3-oxoLCA (0.3%) (n=9 mice/group).

A further data set deals with CD4+ T cells. The text has this:
Representative FACS plots of CD4^+ T cells cultured for 3 days and stained intracellularly for FoxP3 (e). Quantification of FoxP3^+ and viable T cells after 3-day culture (f) (n=2/group). n, number of biologically independent samples. Data are representative of two independent experiments (b, d). Data in (c) are shown as the mean±standard deviation.
Naïve CD4^+ T cells were isolated from FoxP3-IRES-GFP mice. d, Flow cytometry of CD4^+ T cells stained intracellularly for FoxP3. Naïve CD4^+ T cells isolated from WT, CNS1, CNS2 or CNS3 knockout mice (n=3/group) were cultured with anti-CD3/28 and IL-2, LCA (20 μM), TGF-β (0.05 ng/ml) and additional retinoic acid (RA; 1 ng/ml). e and f, Flow cytometry (e) and its quantification (f) of CD4^+ T cells stained intracellularly for FoxP3. […] Data are representative of two independent experiments (c, d). Data are shown as the mean±standard deviation by unpaired t-test with 2-tailed p-value.
Flow Cytometry. Cells harvested from in vitro culture or in vivo mice experiments were stimulated with 50 ng/mL PMA (Phorbol 12-myristate 13-acetate, Sigma) and 1 μM ionomycin (Sigma) in the presence of GolgiPlug (BD) for 4 h to determine cytokine expression. After stimulation, cells were stained with cell surface marker antibodies and LIVE/DEAD Fixable dye, Aqua, to exclude dead cells, fixed and permeabilized with a FoxP3/Transcription factor staining kit (eBioscience), followed by staining with cytokine- and/or transcription factor-specific antibodies. All flow cytometry analyses were performed on an LSR II flow cytometer (BD) and data were analyzed with FlowJo software (TreeStar).

A short description of data set [3]: Bile acid quantification in mouse cecal contents by UPLC-MS. The note with it: mice fed 0.3% (w/w) 3-oxoLCA chow for one week.
Excerpt: as §1

Data set [4] has as its system lamina propria CD4+ T cells (Th17, Treg). In words: Anti-CD3 injection gut inflammation model, bile acid diet. It is filed as in vivo, mouse. The note with it: 1% diet. How it is done: as §1, §2
The subject of data set [5] is fusion protein of RORγt and Gal4-DBD. Kind of data set: RORγt luciferase reporter assay in HEK293 cells. In kind it is cell-based, human. The note with it: ML209 2 μM, bile acids 10 μM. How it is done:
as §1
(§3) We next examined if 3-oxoLCA physically interacts with the RORγt protein in vitro. A microscale thermophoresis (MST) assay was performed with recombinant human RORγt ligand-binding domain (LBD). […] Next, we examined if 3-oxoLCA modulates the transcriptional activity of RORγt. We assayed the effect of the bile acids on firefly luciferase expression directed by a fusion protein of RORγt and Gal4-DBD (DNA-binding domain) in human embryonic kidney (HEK) 293 cells^14.
(In general: Reporter assays use an easily measured gene product as a stand-in for the process of interest.)

Data set [6] has as its target T1, recombinant human RORγt ligand-binding domain (LBD) (Homo sapiens, UniProt P51449).
T1 sequence (P51449 269-508 limits assumed): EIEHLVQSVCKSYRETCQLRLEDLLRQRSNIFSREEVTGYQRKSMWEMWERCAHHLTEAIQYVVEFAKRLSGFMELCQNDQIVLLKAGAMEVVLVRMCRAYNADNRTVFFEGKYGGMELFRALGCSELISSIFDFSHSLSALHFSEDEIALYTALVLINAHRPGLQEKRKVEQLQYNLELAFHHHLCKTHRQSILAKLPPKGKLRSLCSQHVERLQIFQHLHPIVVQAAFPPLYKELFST
Kind of data set: Microscale thermophoresis assay. The note with it: MST, read-out: equilibrium dissociation constant (Kd). How it is done: as §3
Microscale Thermophoresis Assay. The binding affinity of the compounds with RORγ ligand-binding domain (LBD) was analyzed by microscale thermophoresis (MST). Purified RORγ-LBD was labeled with the Monolith NT™ Protein Labeling Kit RED (NanoTemper Technologies). Serially-diluted compounds, with concentrations of 1 mM to 20 nM, were mixed with 55 nM labeled RORγ-LBD at room temperature and loaded into Monolith™ standard-treated capillaries. Binding was measured by monitoring the thermophoresis with 20% LED power and ‘Medium’ MST power on a Monolith NT.115 instrument (Nano Temper Technologies) with the following time setting: 5s Fluo, Before; 20s MST On; and 5s Fluo, After. Kd values were fitted using the NT Analysis software (Nano Temper Technologies).
In general terms: Microscale thermophoresis detects binding through changes in fluorescence in a small temperature gradient.

The nature of data set [7]: Measurement of lipophilicity (octanol/ammonium bicarbonate partitioning, LC-MS). The note with it: n-octanol / 50 mM ammonium bicarbonate, pH 8.
Experimental: Measurement of lipophilicity. Partitioning Method: 2 μL of 10 mM stock solutions of each target compound was added to a 1 mL each of 50 mM ammonium bicarbonate (pH=8), and 1 mL of n-octanol in an Eppendorf tube. The resulting two-phase mixture was vortexed and then shaken for 18 h at 20° C. The two phases were then carefully separated into the aqueous sample (bottom layer), and organic sample (top-layer) and placed separately in autosampler vials and analyzed by LC-MS/MS. LC-MS Method: a Thermo q-Exactive Plus LC-MS equipped with an Ultimate 3000 HPLC was operated in negative ion mode after optimized to detect the [M− H]^− of the bile acids. […] A Dikma Inspire C8 column (3 μm particle size, 100 mm length, 4.6 mm ID) was used for analysis. Each injection was 5 μL, and a constant flow rate of 0.400 L/min was used. The gradient started at 0% B and was held constant for 2 minutes. Then the mobile phase composition was linearly changed to 100% B over 8 minutes and held at 100% for the following 5 minutes. The mobile phase composition was changed to 0% B over the following 0.1 minutes and the system was allowed to equilibrate to starting conditions over 1.9 minutes. Standards of all targets were used to establish retention times. Better than 2 ppm mass accuracy was obtained on all measurements. The LC-MS analysis was done in triplicate, while the partitioning was done once for each target's [M− H]^− ion. Calculation of log D: the total response of target in octanol was divided by the total response in the aqueous phase to get a partitioning coefficient. Then, log base 10 was taken and reported.

The term Kd denotes the concentration at which binding is half-saturated. What is called logD is the decadic logarithm of the distribution of all forms, ionised or not, between an organic phase and buffer at a given pH. As to `C[C@H](CCC(=O)O)[C@H]1CC[C@H]2[C@@H]3CC[C@@H]4CC(=O)CC[C@]4(C)[C@H]3CC[C@]12C` [3-oxoLCA, 3-oxolithocholic acid], the “percentage of ileal Th17 cells” value in data set [1] (Jax-B6 mice gavaged with SFB, one week) is on record as “significantly reduced the percentage of ileal Th17 cells”. For the same compound, in data set [1] (Tac-B6 mice with pre-existing SFB, 7 days), the Th17 cell percentages result was “reduced levels of Th17 cell percentages”. The Treg percentages entry in data set [1] (Tac-B6 mice, 7 days) is “did not affect Treg percentages”. In addition, in data set [2], the “Th17 cell induction in the colon” value is recorded as “reduced Th17 cell induction in the colons of germ-free B6 mice infected with Citrobacter rodentium”. Moreover, in the data set on CD4+ T cells, the cell viability entry is on record as “do not significantly affect cell proliferation, cell viability”. Also, the “average concentration in cecal contents” value in data set [3] is recorded as 24 picomol/mg of wet mass. In addition, the “Th17 cell levels after anti-CD3 injection” value in data set [4] was “reduced Th17 cell levels”. In data set [5], the RORγt reporter activity result was “significantly reduced the RORγt reporter activity”. Moreover, the Kd in data set [6] was approximately 1000 nM. In data set [7], this compound registered a log distribution coefficient (logD) at 18 h of 2.4.
